Data on 17 compounds can be found in PubChem BioAssay (NCI).

Several values for one entry are separate records, joined by “and”; a condition that tells them apart may be missing. Identical values can stand only once.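 Cultured in 96-well plates, cells were exposed to test compound for 48 hours across five concentrations. The concentration for 50% growth inhibition is given as GI50. TGI: concentration producing complete growth inhibition.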

Among the test systems are CAKI-1 renal; K-562 leukemia; NCI-H226 lung; SF-268 CNS; SF-295 CNS; SNB-19 CNS; SNB-75 CNS; TK-10 renal.
Assay in all cases: growth of human tumour cells (NCI), 48 h

Take `COc1ccc(N=N/C(=N\NC(=O)c2cc(Br)ccc2O)c2ccc(N(CCC#N)CCC#N)cc2OC)cc1`: the GI50 in the experiment on CAKI-1 renal was 53.3 mg/L; in the experiment on K-562 leukemia, 74.9 mg/L; with NCI-H226 lung, 24.2 mg/L; in the experiment on SF-268 CNS, 30.1 mg/L; with SF-295 CNS, 73.8 mg/L; in the experiment with SNB-19 CNS, greater than 150 mg/L. In addition, the GI50 with SNB-75 CNS was 27.6 mg/L. The TGI in the experiment on CAKI-1 renal is greater than 150 mg/L; with K-562 leukemia, greater than 150 mg/L; in the experiment with NCI-H226 lung it was 88.1 mg/L; with SF-268 CNS, greater than 150 mg/L; with SF-295 CNS, greater than 150 mg/L; in the experiment with SNB-19 CNS, greater than 150 mg/L. The TGI in the experiment with SNB-75 CNS is 86.8 mg/L.

In the case of `C=C[C@H]1CN2CCc3c([nH]c4c([C@@H]5CCCN5C)c(O)ccc34)[C@@H]2C[C@@H]1C[C@H]1c2[nH]c3ccccc3c2CCN1C`, the TGI with CAKI-1 renal was 3 µM and 3.23 µM; in the experiment on NCI-H226 lung it was 2.96 µM and 3.13 µM and 3.97 µM; with SF-268 CNS, 3.03 µM and 3.42 µM; in the experiment on SF-295 CNS, 3.05 µM; in the experiment on SNB-19 CNS it was 3.5 µM and 2.33 µM and 3.2 µM; in the experiment with SNB-75 CNS it was 2.47 µM. In addition, in the experiment with TK-10 renal, the TGI was 0.993 µM and 2.98 µM and 3.44 µM. For the same compound, the GI50 in the experiment with NCI-H226 lung is 1.27 µM; with SNB-19 CNS, 1.09 µM; in the experiment on TK-10 renal it was 0.031 µM.

On to `CC1NC(C(=O)O)Cc2cc(O)c(O)cc21` (stereo not given), for which the TGI in the experiment with CAKI-1 renal, with NCI-H226 lung, in the experiment with SF-268 CNS, in the experiment with SF-295 CNS, in the experiment with SNB-19 CNS and in the experiment with TK-10 renal was greater than 100 µM throughout.

With `CN1C(=O)/C(=C2\S/C(=N\c3nnc(-c4ccccc4)o3)NC2=O)c2ccccc21`, the GI50 was 51.8 µM in the experiment on CAKI-1 renal; greater than 100 µM with K-562 leukemia; greater than 100 µM in the experiment with SF-268 CNS; 41.2 µM in the experiment on SF-295 CNS; greater than 100 µM in the experiment on SNB-19 CNS; greater than 100 µM with SNB-75 CNS. Further, the GI50 in the experiment on TK-10 renal was greater than 100 µM. Further, the TGI with CAKI-1 renal, with K-562 leukemia, in the experiment with SF-268 CNS, in the experiment on SF-295 CNS, in the experiment on SNB-19 CNS and with SNB-75 CNS was greater than 100 µM in each case. This compound also registered a TGI in the experiment with TK-10 renal greater than 100 µM.

`O=c1c2ccccc2nc2n1CCc1c-2[nH]c2cc3c(cc12)OCO3`: the TGI with K-562 leukemia was greater than 25 µM; in the experiment with SF-268 CNS, greater than 25 µM; with SF-295 CNS, greater than 25 µM; with SNB-19 CNS, 21.9 µM; in the experiment with SNB-75 CNS it was 22 µM; in the experiment with TK-10 renal, greater than 25 µM.

On to `CCNC(=O)Oc1ccc(/C(=C(\C)c2ccc(Cl)cc2)c2ccc(OCCN(CC)CC)cc2)cc1`, for which the GI50 in the experiment on K-562 leukemia is 2.18 µM; in the experiment on NCI-H226 lung it was 17.2 µM; in the experiment with SF-268 CNS it was 5.99 µM; in the experiment with SF-295 CNS, 1.85 µM; in the experiment with SNB-19 CNS it was 3.13 µM; in the experiment with SNB-75 CNS, 2.45 µM. For the same compound, in the experiment on TK-10 renal, the GI50 is 17 µM. The TGI came to 5.37 µM with K-562 leukemia; 39.5 µM in the experiment on NCI-H226 lung; 21 µM in the experiment with SF-268 CNS; 4.12 µM with SF-295 CNS; 8.45 µM in the experiment with SNB-19 CNS; 18.4 µM in the experiment with SNB-75 CNS. Further, the TGI in the experiment with TK-10 renal is 31.8 µM.

On to `CS(=O)(=O)O[C@H]1C(=O)N(c2cc3c4ccccc4ccc3c3ccccc23)[C@@H]1c1ccccn1`, for which the GI50 with CAKI-1 renal is 0.413 µM; in the experiment on NCI-H226 lung it was 5.36 µM; in the experiment on SF-268 CNS, 0.707 µM; in the experiment with SF-295 CNS it was 0.291 µM; with SNB-19 CNS, 0.749 µM; in the experiment on SNB-75 CNS, 0.248 µM. Further, the GI50 in the experiment with TK-10 renal was 0.996 µM. Further, the TGI was greater than 100 µM with CAKI-1 renal; greater than 100 µM in the experiment on NCI-H226 lung; greater than 100 µM in the experiment on SF-268 CNS; 11.8 µM in the experiment on SF-295 CNS; greater than 100 µM with SNB-19 CNS; greater than 100 µM with SNB-75 CNS. Besides, in the experiment with TK-10 renal, the TGI was greater than 100 µM.

As to `COC(=O)[C@H](Cc1ccccc1)NNC(=O)c1csc([C@@H](C[C@H](C(C)C)N(C)C(=O)[C@@H](NC(=O)[C@H]2CCCCN2C)C2CC2)OC(C)=O)n1`, the GI50 in the experiment on K-562 leukemia was 0.00302 µM and 0.0025 µM and 0.0243 µM. The TGI was 25 µM and > 100 µM in the experiment with K-562 leukemia; 25 µM and > 100 µM in the experiment with NCI-H226 lung; 25 µM and > 100 µM in the experiment on SF-268 CNS; 25 µM and > 100 µM in the experiment on SF-295 CNS; greater than 100 µM in the experiment on SNB-19 CNS; 25 µM and > 100 µM in the experiment with TK-10 renal.

As to `CC(=O)NC(CS)C(=O)O` (stereo not given), the GI50 with CAKI-1 renal, with NCI-H226 lung, with SF-268 CNS, with SF-295 CNS, with SNB-19 CNS and in the experiment on SNB-75 CNS was greater than 100 µM in each case. Also, in the experiment with TK-10 renal, the GI50 is greater than 100 µM. Further, the TGI was > 100 µM and 53400 µM with CAKI-1 renal; > 100 µM and 45000 µM in the experiment on NCI-H226 lung; > 100 µM and 63800 µM in the experiment with SF-268 CNS; > 100 µM and 57700 µM with SF-295 CNS; greater than 100 µM in the experiment with SNB-19 CNS; > 100 µM and 89800 µM in the experiment with SNB-75 CNS. Besides, the TGI in the experiment on TK-10 renal is > 100 µM and 76500 µM.

In the case of `O=C1Nc2ccc(O)cc2/C1=C\c1ccncc1`, the GI50 in the experiment with CAKI-1 renal was 17.9 µM; in the experiment with K-562 leukemia it was 17.7 µM; with SF-268 CNS it was 12 µM; in the experiment on SF-295 CNS, 25.9 µM; with SNB-19 CNS it was 21.2 µM; in the experiment on TK-10 renal, 18.6 µM. Besides, the TGI in the experiment on CAKI-1 renal was 54.2 µM; in the experiment on K-562 leukemia, 56.2 µM; in the experiment with SF-268 CNS, 36.3 µM; in the experiment with SF-295 CNS, 77.8 µM; in the experiment with SNB-19 CNS it was 59 µM; in the experiment with TK-10 renal, 39.8 µM.

On to `c1ccc(COCC[P+](c2ccccc2)(c2ccccc2)c2ccccc2)cc1`, for which the GI50 in the experiment with CAKI-1 renal was 5.4 µM; in the experiment on K-562 leukemia, 0.383 µM; in the experiment on NCI-H226 lung, 1.22 µM; with SF-268 CNS it was 3.17 µM; in the experiment on SF-295 CNS it was 1.39 µM; with SNB-19 CNS, 1.03 µM. Besides, the GI50 with SNB-75 CNS is 1.44 µM. Moreover, the TGI was 23.1 µM in the experiment with CAKI-1 renal; 16 µM in the experiment with K-562 leukemia; 29.8 µM in the experiment with NCI-H226 lung; 23.1 µM in the experiment on SF-268 CNS; 6.64 µM in the experiment with SF-295 CNS; 10.7 µM in the experiment on SNB-19 CNS. The compound further showed a TGI in the experiment with SNB-75 CNS of 6.76 µM.

For `Cc1cc(O[C@@H]2O[C@@H](C)[C@H](O)[C@@H](O)[C@H]2O)c2c3c(c(O[C@@H]4O[C@@H](C)[C@H](O)[C@@H](O)[C@H]4O)cc2c1)C(=O)c1c(O)cccc1C3=O`, the GI50 with K-562 leukemia, with NCI-H226 lung, with SF-268 CNS, in the experiment on SF-295 CNS, in the experiment on SNB-19 CNS and with SNB-75 CNS was greater than 30 µM throughout. In addition, the TGI in the experiment on K-562 leukemia, with NCI-H226 lung, with SF-268 CNS, with SF-295 CNS, with SNB-19 CNS and in the experiment on SNB-75 CNS was greater than 30 µM in each case.

As for `CCCCOC(=O)/C=C\C(=O)NC(N)=O`, the GI50 with CAKI-1 renal was 2.53 µM; in the experiment on K-562 leukemia it was 31.3 µM; in the experiment on NCI-H226 lung, 20 µM; in the experiment on SF-268 CNS, 22.1 µM; in the experiment with SF-295 CNS it was 47.2 µM; in the experiment with SNB-19 CNS it was 41.2 µM. In addition, the GI50 in the experiment on SNB-75 CNS is 18 µM. Moreover, the TGI is 9.23 µM in the experiment with CAKI-1 renal; greater than 100 µM with K-562 leukemia; 49.2 µM in the experiment on NCI-H226 lung; 61 µM in the experiment with SF-268 CNS; greater than 100 µM with SF-295 CNS; greater than 100 µM with SNB-19 CNS. Besides, the TGI in the experiment with SNB-75 CNS amounted to 74.9 µM.

On to `COc1cccc(CCNC(=O)CC(c2ccccc2)(c2ccccc2)c2ccccc2)c1`, for which the GI50 in the experiment with CAKI-1 renal is 3.16 µM; with K-562 leukemia it was 6.03 µM; in the experiment on SF-268 CNS it was 15 µM; with SF-295 CNS, 4.36 µM; in the experiment with SNB-19 CNS, 90.1 µM; in the experiment with SNB-75 CNS it was greater than 100 µM. The GI50 in the experiment with TK-10 renal is 21.9 µM. The TGI in the experiment with CAKI-1 renal was 50.9 µM; in the experiment with K-562 leukemia, greater than 100 µM; in the experiment on SF-268 CNS, greater than 100 µM; with SF-295 CNS, greater than 100 µM; with SNB-19 CNS it was greater than 100 µM; with SNB-75 CNS it was greater than 100 µM. In the experiment with TK-10 renal, the TGI turned out to be 82.2 µM.

Take `Cc1ccc(/C=C(/C#N)n2nnc3ncccc32)cc1`: the GI50 was 0.545 µM with K-562 leukemia; 4.46 µM with NCI-H226 lung; 3.08 µM in the experiment with SF-268 CNS; 3.77 µM with SF-295 CNS; 3.43 µM with SNB-19 CNS; 2.98 µM in the experiment on SNB-75 CNS. Besides, in the experiment on TK-10 renal, the GI50 is 2.39 µM. For the same compound, the TGI in the experiment on K-562 leukemia is greater than 100 µM; in the experiment on NCI-H226 lung it was 28 µM; in the experiment on SF-268 CNS it was 15.1 µM; with SF-295 CNS, 16.2 µM; in the experiment on SNB-19 CNS, 16.8 µM; in the experiment on SNB-75 CNS it was greater than 100 µM. Also, in the experiment with TK-10 renal, the TGI was 9.22 µM.

With `CCOC(=O)C1=C(C)NC(C)=C(C(=O)OCCNC(=O)c2ccc(N=[N+]=[N-])cc2)C1c1ccccc1C(F)(F)F` (stereo not given), the TGI in the experiment with CAKI-1 renal, in the experiment on K-562 leukemia, with NCI-H226 lung, in the experiment with SF-268 CNS, in the experiment on SF-295 CNS and with SNB-19 CNS was 21.5 µM throughout. In addition, the TGI in the experiment with TK-10 renal stood at 31.1 µM.

Regarding `C=C1C(=O)O[C@@H]2C[C@@H]1CC[C@]1(C)O[C@H]1CC/C(C)=C/CC[C@@]2(C)O`, the GI50 with CAKI-1 renal is 18.7 µM; in the experiment on K-562 leukemia it was 34.3 µM; in the experiment on NCI-H226 lung, 21.7 µM; in the experiment on SF-268 CNS, 19.9 µM; in the experiment with SF-295 CNS, 29.7 µM; in the experiment with SNB-19 CNS, 49.6 µM. Also, the GI50 in the experiment on TK-10 renal was 15.4 µM. The TGI with CAKI-1 renal is 37 µM; with K-562 leukemia, greater than 100 µM; with NCI-H226 lung it was 59.2 µM; with SF-268 CNS, 50.5 µM; with SF-295 CNS it was 92.5 µM; with SNB-19 CNS it was greater than 100 µM. In the experiment with TK-10 renal, this compound registered a TGI of 37.8 µM.
